Publication PMC5945843, “Direct neurotransmitter activation of voltage-gated potassium channels” (Nature Communications, 2018)
Values joined by “and” are separate entries in the source; they are usually repeats but may differ in a detail not shown here. Equal values may be shown once. Read-outs that look alike come from different tables or passages of the source.

Experiments:
[1] = molecular target: homomeric wild-type human KCNQ3 (Homo sapiens, UniProt O43525); test: 3H-GABA radioligand binding (single concentration, cold competition, saturation) in Xenopus oocytes; conditions: cold (unlabeled) GABA 1 mM
homomeric wild-type human KCNQ3, sequence (O43525 whole entry): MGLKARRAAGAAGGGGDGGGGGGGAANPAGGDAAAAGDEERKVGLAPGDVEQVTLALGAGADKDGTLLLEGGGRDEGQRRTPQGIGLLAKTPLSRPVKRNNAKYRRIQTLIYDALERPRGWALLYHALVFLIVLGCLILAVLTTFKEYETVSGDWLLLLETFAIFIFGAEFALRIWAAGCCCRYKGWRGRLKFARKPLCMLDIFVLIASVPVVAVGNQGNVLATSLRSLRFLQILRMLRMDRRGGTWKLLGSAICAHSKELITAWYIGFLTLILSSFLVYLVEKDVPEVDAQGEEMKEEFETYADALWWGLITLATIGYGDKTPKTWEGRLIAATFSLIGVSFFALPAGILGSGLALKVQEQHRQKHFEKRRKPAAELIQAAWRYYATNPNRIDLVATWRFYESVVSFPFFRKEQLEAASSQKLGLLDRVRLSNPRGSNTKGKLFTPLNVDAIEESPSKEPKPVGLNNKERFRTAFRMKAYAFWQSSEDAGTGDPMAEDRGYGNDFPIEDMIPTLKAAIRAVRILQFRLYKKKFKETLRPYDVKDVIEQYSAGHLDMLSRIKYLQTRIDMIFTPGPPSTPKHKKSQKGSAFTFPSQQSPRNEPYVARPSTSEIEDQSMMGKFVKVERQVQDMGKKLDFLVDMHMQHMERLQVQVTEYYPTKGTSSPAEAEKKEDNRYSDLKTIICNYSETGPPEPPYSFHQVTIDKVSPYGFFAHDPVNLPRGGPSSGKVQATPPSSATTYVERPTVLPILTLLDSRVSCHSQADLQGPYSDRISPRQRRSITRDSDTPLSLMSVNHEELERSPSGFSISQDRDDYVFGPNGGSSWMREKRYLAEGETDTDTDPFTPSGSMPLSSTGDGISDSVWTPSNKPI
Experimental: Defolliculated stage V and VI Xenopus laevis oocytes (Ecocyte Bioscience, Austin, TX) were injected with Kv channel α subunit cRNAs (5–10 ng).
Oocytes were then washed four times in 16 °C ND96, then transferred to individual wells in a 96-well plate and lysed in 0.2% SDS in ND96. Each oocyte lysate was transferred to a scintillation vial containing 5 ml cytoscint scintillation cocktail fluid (MP Biomedicals, Santa Ana, CA). Vials were capped, shaken, and then allowed to sit at room temperature for at least 30 min before scintillation counting in a Beckmann Coulter LS6500 liquid scintillation counter. […] Oocytes were next incubated in 1 ml per group homogenization buffer (in mM, 150 NaCl, 2 CaCl2, 20 Tris, 2% Nonidet P-40) with 2% protease inhibitor cocktail (Pierce) and then lysed with a 20 ml pipette tip, vortexed, centrifuged at 4000 r.p.m. (10 min, 4 °C). The supernatant was mixed in Eppendorf tubes end-over-end overnight at 4 °C with high-capacity streptavidin agarose beads (Thermo Fisher, Huntington Beach, CA) (20 µl per group).
For the binding competition assay, the control group was treated as before. […] Each oocyte lysate was transferred to a scintillation vial containing 5 ml cytoscint scintillation cocktail fluid (MP Biomedicals). […] Bmax and Kd values were calculated using automated nonlinear regression analysis in GraphPad prism.

[2] = molecular target: KCNQ5 (Homo sapiens, UniProt Q9NR82); test: TEVC in Xenopus oocytes; type: cell-based; conditions: for Slope: Ctrl 9.6 ± 1.9; for Normalized tail current V0.5: Ctrl -41.7 ± 1.5; for Non-normalized tail current V0.5: Ctrl -[…]
From the text: (§4) cRNA transcripts encoding human KCNQ1, KCNQ2, KCNQ3, KCNQ4, KCNQ5, KCNA1, or KCNE1 were generated by in vitro transcription using the T7 polymerase mMessage mMachine kit (Thermo Fisher Scientific), after vector linearization, from complementary DNA (cDNA) sub-cloned into plasmids incorporating Xenopus laevis β-globin 5′ and 3′ untranslated regions flanking the coding region to enhance translation and cRNA stability. cRNA was quantified by spectrophotometry. […] Defolliculated stage V and VI Xenopus laevis oocytes (Ecocyte Bioscience, Austin, TX) were injected with Kv channel α subunit cRNAs (5–10 ng).
(§5) Oocytes were placed in a small-volume oocyte bath (Warner) and viewed with a dissection microscope. Chemicals were sourced from Sigma. Bath solution was (in mM): 96 NaCl, 4 KCl, 1 MgCl2, 1 CaCl2, 10 HEPES (pH 7.6). […] Valeric acid was stored as a 5 mM stock in Ringer’s solution at 4 °C and diluted to working concentrations each experimental day. β-hydroxybutyric acid was stored at 4 °C as a 480 mM stock in 100% ethanol and diluted to working concentrations each experimental day. All compounds were introduced to the recording bath via gravity perfusion at a constant flow of 1 ml per min for 3 min prior to recording. Pipettes were of 1–2 MΩ resistance when filled with 3 M KCl. Currents were recorded in response to pulses between −80 mV and +40 mV at 20 mV intervals, or a single pulse to +40 mV, from a holding potential of −80 mV, to yield current-voltage relationships, current magnitude, and for quantifying activation rate. Deactivation was recorded at −80 mV after a single activating pulse to +40 mV, from a holding potential of −80 mV. […] TEVC data analysis was performed with Clampfit (Molecular Devices) and Graphpad Prism software (GraphPad, San Diego, CA, USA); values are stated as mean ± SEM. Normalized tail currents were plotted versus prepulse voltage and fitted with a single Boltzmann function:1 g=(A1-A2)/1+expV1/2-V∕VS+A2, where g is the normalized tail conductance, A1 is the initial value at −∞, A2 is the final value at +∞, V1/2 is the half-maximal voltage of activation, and VS the slope factor. Activation and deactivation kinetics were fitted with single exponential functions.

[3] = molecular target: KCNQ3* (expression-optimized KCNQ3-A315T mutant) (Homo sapiens, UniProt O43525, A315T); conditions: for Slope: Ctrl 4.5 ± 0.9; for Normalized tail current V0.5: Ctrl -51.4 ± 1.9; for Non-normalized tail current V0.5: Ctrl -47.5 ± 4.4
From the text: as §4, §5

[4] = molecular target: KCNQ1-KCNE1 (Homo sapiens, UniProt P51787); test: TEVC and resting membrane potential in Xenopus oocytes; type: cell-based
From the text: as §4, §5

[5] = molecular target: KCNQ1 (Homo sapiens, UniProt P51787); test: Two-electrode voltage clamp (TEVC) in Xenopus oocytes
From the text: as §4
Oocytes were placed in a small-volume oocyte bath (Warner) and viewed with a dissection microscope. Chemicals were sourced from Sigma. Bath solution was (in mM): 96 NaCl, 4 KCl, 1 MgCl2, 1 CaCl2, 10 HEPES (pH 7.6). […] Valeric acid was stored as a 5 mM stock in Ringer’s solution at 4 °C and diluted to working concentrations each experimental day. β-hydroxybutyric acid was stored at 4 °C as a 480 mM stock in 100% ethanol and diluted to working concentrations each experimental day. All compounds were introduced to the recording bath via gravity perfusion at a constant flow of 1 ml per min for 3 min prior to recording. Pipettes were of 1–2 MΩ resistance when filled with 3 M KCl. Currents were recorded in response to pulses between −80 mV and +40 mV at 20 mV intervals, or a single pulse to +40 mV, from a holding potential of −80 mV, to yield current-voltage relationships, current magnitude, and for quantifying activation rate. Deactivation was recorded at −80 mV after a single activating pulse to +40 mV, from a holding potential of −80 mV. For wortmannin studies, oocytes were incubated in 30 µM wortmannin for 3 h at 16 °C prior to recording. TEVC data analysis was performed with Clampfit (Molecular Devices) and Graphpad Prism software (GraphPad, San Diego, CA, USA); values are stated as mean ± SEM. […]

[6] = molecular target: KCNQ4 (Homo sapiens, UniProt P56696); test: TEVC in Xenopus oocytes; type: cell-based; conditions: for Non-normalized tail current V0.5: Ctrl 8.6 ± 4.3; for Normalized tail current V0.5: Ctrl -8.7 ± 0.8
From the text: as §4, §5

[7] = molecular target: T1, KCNQ2/3 channels expressed in CHO cells (Mus musculus, UniProt Q8K3F6+Q9Z351); test: Whole-cell patch clamp of transfected CHO cells; type: cell-based; conditions: 100 µM GABA
T1 construct: expressed in transfected cells; host or cells: CHO cells (ATCC), transient transfection with TransIT-LT1
Experimental: (§1) CHO cells (ATCC) were seeded on poly-L-lysine-treated glass coverslips in 24-well plates and transfected the next day using 0.5 µg each of mouse KCNQ2 and KCNQ3 cDNA in a CMV vector per well in normal media (DMEM with 10% FBS and 1% penicillin/streptomycin). The transfection reagent used was TransIT-LT1 (Mirus Bio LLC, Madison, WI, USA) and cells were patched 48–72 h post transfection. […] Media was replenished every 3 days and cultures were split once a week. […] Cell culture plastic ware and reagents were purchased from VWR and Fisher Scientific unless otherwise stated.
(§2) For both CHO cells and PC12 cells, currents were recorded in whole-cell mode at room temperature (22–25 °C) with 3–6 MΩ borosilicate glass electrodes backfilled with solution containing (in mM): 90 K acetate, 20 KCl, 40 HEPES, 3 MgCl2, 1 CaCl2, 3 EGTA-KOH, 2 MgATP; pH 7.2.
(§3) The pClamp8 (Molecular Devices) software package was used for data acquisition and Clampfit was used for analysis, along with Graphpad Prism 7.0 (Graphpad).

[8] = test system: native M-current in mouse DRG neurons; test: Perforated patch-clamp of dorsal root ganglion neurons; type: cell-based; conditions: 100 µM GABA
Experimental: Adult male mice were purchased from Jackson Labs and then housed and used according to a protocol approved by the Institutional Animal Care and Use Committee of University of California, Irvine, and consistent with recommendations in the NIH Guide for the Care and Use of Laboratory Animals (8th edition, 2011). […]. DRG neurons were then cultured on poly-L-lysine and laminin-coated plastic coverslips in RPMI 1640 with 10% horse serum and 1% penicillin/streptomycin at 37 °C for 1–4 days before electrophysiological recordings were performed using perforated patch clamp. Amphotericin B (VWR, Radnor, PA) was dissolved in DMSO at 5 mg/ml (stock solution), then diluted to 150–200 µg/ml in intracellular solution and sonicated with a probe sonicator on ice for 5 s, kept at room temperature in the dark, and replaced every hour with a fresh solution from the stock. The working amphotericin solution was backfilled into borosilicate glass electrodes (3–5 MΩ) previously tip-filled to ~0.5 mm with intracellular solution lacking amphotericin B, immediately prior to sealing onto individual neurons. After whole-cell configuration was achieved and capacitance stabilized, whole-cell recordings were performed essentially as described in the prior paragraph, with the following differences: neurons were held at −20 mV to inactivate other channels before the test pulses; offline leak subtraction was performed.

[9] = molecular target: KCNA1 (Kv1.1) (Homo sapiens, UniProt Q09470); test: TEVC in Xenopus oocytes; type: cell-based; conditions: for Slope: Ctrl 6.2 ± 0.4; for Normalized tail current V0.5: Ctrl -29.8 ± 0.69
KCNA1 (Kv1.1), sequence (Q09470 whole entry): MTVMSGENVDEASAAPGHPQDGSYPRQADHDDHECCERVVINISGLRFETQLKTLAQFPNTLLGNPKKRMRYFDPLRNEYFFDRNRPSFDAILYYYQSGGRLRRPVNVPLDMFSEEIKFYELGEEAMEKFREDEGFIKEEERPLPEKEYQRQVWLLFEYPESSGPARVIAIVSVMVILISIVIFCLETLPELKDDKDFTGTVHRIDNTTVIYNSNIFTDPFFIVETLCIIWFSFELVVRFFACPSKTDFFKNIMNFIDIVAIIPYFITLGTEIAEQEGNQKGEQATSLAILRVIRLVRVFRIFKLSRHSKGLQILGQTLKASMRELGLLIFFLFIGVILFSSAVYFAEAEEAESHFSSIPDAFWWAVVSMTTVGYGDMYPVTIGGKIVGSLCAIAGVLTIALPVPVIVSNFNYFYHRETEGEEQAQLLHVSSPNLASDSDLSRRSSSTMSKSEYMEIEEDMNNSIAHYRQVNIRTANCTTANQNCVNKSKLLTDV
From the text: Chemicals were sourced from Sigma.

[10] = test system: native M-current in PC12 cells; test: Whole-cell patch clamp of NGF-differentiated PC12 cells; type: cell-based, rat; conditions: 100 µM GABA + 100 µM picrotoxin + 10 µM CGP55845
Experimental: as §1, §2, §3

[11] = test system: water-injected Xenopus laevis oocytes; test: TEVC of water-injected oocytes (endogenous currents, EM); type: cell-based
From the text: Chemicals were sourced from Sigma. […] […].

[12] = especially at subthreshold potentials

NCCCC(=O)O [GABA, γ-aminobutyric acid]
competition of 3H-GABA binding [1]: outcompeted
Slope ([2]; 0.001 µM GABA): 9.4 ± 4.3 mV
Normalized tail current V0.5 ([2]; 0.001 µM GABA): -41.9 ± 2.9 mV
Non-normalized tail current V0.5 ([2]; 0.001 µM GABA): -41.8 ± 2.8 mV
Slope ([2]; 0.01 µM GABA): 7.6 ± 2.4 mV
Normalized tail current V0.5 ([2]; 0.01 µM GABA): -50.1 ± 2.9 mV
Non-normalized tail current V0.5 ([2]; 0.01 µM GABA): -49.5 ± 2.5 mV
Slope ([2]; 0.1 µM GABA): 7.4 ± 1.2 mV
Normalized tail current V0.5 ([2]; 0.1 µM GABA): -53.9 ± 1.7 mV
Non-normalized tail current V0.5 ([2]; 0.1 µM GABA): -51.3 ± 2.1 mV
Slope ([2]; 1 µM GABA): 7.6 ± 1.2 mV
Normalized tail current V0.5 ([2]; 1 µM GABA): -54.2 ± 1.6 mV
Non-normalized tail current V0.5 ([2]; 1 µM GABA): -51.2 ± 2.6 mV
Slope ([2]; 10 µM GABA): 8.4 ± 1.4 mV
Normalized tail current V0.5 ([2]; 10 µM GABA): -57.0 ± 1.8 mV
Non-normalized tail current V0.5 ([2]; 10 µM GABA): -54.5 ± 2.3 mV
Slope ([2]; 100 µM GABA): 8.5 ± 1.5 mV
Normalized tail current V0.5 ([2]; 100 µM GABA): -57.4 ± 1.8 mV
Non-normalized tail current V0.5 ([2]; 100 µM GABA): -54.5 ± 2.7 mV
Slope ([2]; 1 mM GABA): 8.8 ± 1.5 mV
Normalized tail current V0.5 ([2]; 1 mM GABA): -58.3 ± 1.8 mV
Non-normalized tail current V0.5 ([2]; 1 mM GABA): -56.4 ± 2.4 mV
higher GABA sensitivity of KCNQ5 than KCNQ3* ([2]; EC50 ratio at −60 mV): 17 fold
EC50 ([2]; at −60 mV): 60 ± 10 nM
effect on channel [2, 12]: activates
efficacy of channel activation, KCNQ3* compared to KCNQ5 [3]: more than threefold greater
Slope ([3]; 0.1 µM GABA): 4.6 ± 0.9 mV
Normalized tail current V0.5 ([3]; 0.1 µM GABA): -54.2 ± 1.5 mV
Slope ([3]; 1 µM GABA): 4.3 ± 0.8 mV
Slope ([3]; 10 µM GABA): 4.3 ± 3.5 mV
Non-normalized tail current V0.5 ([3]; 10 µM GABA): -58.4 ± 2.7 mV
Normalized tail current V0.5 ([3]; 10 µM GABA): -58.9 ± 1.0 mV
Slope ([3]; 100 µM GABA): 4.8 ± 3.0 mV
Non-normalized tail current V0.5 ([3]; 100 µM GABA): -59.4 ± 2.8 mV
Normalized tail current V0.5 ([3]; 100 µM GABA): -59.8 ± 0.9 mV
Slope ([3]; 1 mM GABA): 4.7 ± 3.3 mV
Non-normalized tail current V0.5 ([3]; 1 mM GABA): -59.3 ± 2.5 mV
Normalized tail current V0.5 ([3]; 1 mM GABA): -59.6 ± 0.9 mV
effect on channel [3, 12]: activates
Normalized tail current V0.5 ([4]; 100 µM GABA, Ctrl 6.1 ± 0.8): 3.3 ± 1.2 mV
Non-normalized tail current V0.5 ([4]; 100 µM GABA, Ctrl 6.3 ± 2.6): 3.1 ± 2.7 mV
Slope ([4]; 100 µM GABA, Ctrl 14 ± 0.7): 13.2 ± 0.9 mV
effect on KCNQ1-KCNE1 activity ([4]; GABA 100 µM): no effect
effect on resting membrane potential (EM) ([4]; GABA 100 µM, unclamped oocytes): does not alter
GABA sensitivity of channel activity [5]: relatively GABA-insensitive
Non-normalized tail current V0.5 ([5]; 100 µM GABA, Ctrl -30.1 ± 2.2): -32.6 ± 1.9 mV
Normalized tail current V0.5 ([5]; 100 µM GABA, Ctrl -34.1 ± 0.9): -34.2 ± 0.8 mV
GABA sensitivity of channel activity [6]: relatively GABA-insensitive
Non-normalized tail current V0.5 ([6]; 0.1 µM GABA): -8.8 ± 4.3 mV
Normalized tail current V0.5 ([6]; 0.1 µM GABA): -9.6 ± 0.7 mV
Non-normalized tail current V0.5 ([6]; 1 µM GABA): -9.0 ± 4.3 mV
Normalized tail current V0.5 ([6]; 1 µM GABA): -9.6 ± 0.8 mV
Non-normalized tail current V0.5 ([6]; 10 µM GABA): -9.3 ± 3.7 mV
Normalized tail current V0.5 ([6]; 10 µM GABA): -9.8 ± 0.8 mV
Non-normalized tail current V0.5 ([6]; 100 µM GABA): -9.0 ± 3.8 mV
Normalized tail current V0.5 ([6]; 100 µM GABA): -10.3 ± 0.8 mV
Non-normalized tail current V0.5 ([6]; 1 mM GABA): -8.4 ± 3.4 mV
Normalized tail current V0.5 ([6]; 1 mM GABA): -8.8 ± 0.8 mV
Slope ([7]; Ctrl 14.3 ± 1.6): 16.2 ± 3.0 mV
Normalized tail current V0.5 ([7]; Ctrl -2.9 ± 2.7): -17.5 ± 3.7 mV and −17.5 mV
decrease of deactivating current at −60 mV [8]: ~ 25%
mean GABA-dependent change in current ([8]; at −20 mV): no mean change
mean GABA-dependent current increase ([8]; at −60 mV, picrotoxin + CGP55845 present): threefold
Slope ([9]; 0.1 µM GABA): 6.4 ± 0.5 mV
Normalized tail current V0.5 ([9]; 0.1 µM GABA): -29.3 ± 0.88 mV
Slope ([9]; 1 µM GABA): 6.1 ± 0.5 mV
Normalized tail current V0.5 ([9]; 1 µM GABA): -28.4 ± 0.89 mV
Slope ([9]; 10 µM GABA): 6.1 ± 0.5 mV
Normalized tail current V0.5 ([9]; 10 µM GABA): -27.6 ± 0.82 mV
Slope ([9]; 100 µM GABA): 6.2 ± 0.4 mV
Normalized tail current V0.5 ([9]; 100 µM GABA): -27.2 ± 0.67 mV
Slope ([9]; 1 mM GABA): 6.4 ± 0.6 mV
Normalized tail current V0.5 ([9]; 1 mM GABA): -27.3 ± 0.93 mV
effect on peak current or normalized tail current ([9]; GABA 1 mM): no effect
Slope ([10]; blockers alone 17.4 ± 3.0): 16.0 ± 3.2 mV
Normalized tail current V0.5 ([10]; blockers alone -7.1 ± 7.6): -20.6 ± 4.9 mV
effect on endogenous currents or resting membrane potential ([11]; GABA 100 µM): no effect
effect on water-injected oocytes ([11]; GABA 1 mM): neither did increasing GABA to 1 mM produce any noticeable effects
